Experimental findings from ChEMBL document CHEMBL4837250, “Discovery of LYC-55716: A Potent, Selective, and Orally Bioavailable Retinoic Acid Receptor-Related Orphan Receptor-γ (RORγ) Agonist for Use in Treating Cancer” (J Med Chem, 2021) are described below.

Values after ≈ are worked out from the molar mass of the structure shown.

A word on the IC20: it is the point of the concentration-response curve where the effect stands at 20%. Lower therefore signals an effect from little substance. Broadly, the fraction unbound is free concentration divided by total concentration. In general, bioavailability refers to dose-corrected exposure relative to a reference, in per cent. Higher therefore signals much systemic uptake. By EC50 is commonly meant the midpoint of the concentration-response curve. By inhibition is commonly meant the share of the control response that was lost under treatment. As usually defined, the Vd is a proportionality between amount in the body and measured concentration, not a real space. A word on the solubility: it is the concentration that dissolves in the medium under given conditions. Higher therefore signals a readily soluble substance. Broadly, the half-life is the time in which the quantity being followed falls by half. For orientation: AUC(0-inf) means total exposure, with the tail of the curve extrapolated.

The target in one data set is hERG (KCNH2) (Homo sapiens, UniProt Q12809). Nature of the data set: in vitro.
Chain of hERG (KCNH2) (Q12809 whole entry): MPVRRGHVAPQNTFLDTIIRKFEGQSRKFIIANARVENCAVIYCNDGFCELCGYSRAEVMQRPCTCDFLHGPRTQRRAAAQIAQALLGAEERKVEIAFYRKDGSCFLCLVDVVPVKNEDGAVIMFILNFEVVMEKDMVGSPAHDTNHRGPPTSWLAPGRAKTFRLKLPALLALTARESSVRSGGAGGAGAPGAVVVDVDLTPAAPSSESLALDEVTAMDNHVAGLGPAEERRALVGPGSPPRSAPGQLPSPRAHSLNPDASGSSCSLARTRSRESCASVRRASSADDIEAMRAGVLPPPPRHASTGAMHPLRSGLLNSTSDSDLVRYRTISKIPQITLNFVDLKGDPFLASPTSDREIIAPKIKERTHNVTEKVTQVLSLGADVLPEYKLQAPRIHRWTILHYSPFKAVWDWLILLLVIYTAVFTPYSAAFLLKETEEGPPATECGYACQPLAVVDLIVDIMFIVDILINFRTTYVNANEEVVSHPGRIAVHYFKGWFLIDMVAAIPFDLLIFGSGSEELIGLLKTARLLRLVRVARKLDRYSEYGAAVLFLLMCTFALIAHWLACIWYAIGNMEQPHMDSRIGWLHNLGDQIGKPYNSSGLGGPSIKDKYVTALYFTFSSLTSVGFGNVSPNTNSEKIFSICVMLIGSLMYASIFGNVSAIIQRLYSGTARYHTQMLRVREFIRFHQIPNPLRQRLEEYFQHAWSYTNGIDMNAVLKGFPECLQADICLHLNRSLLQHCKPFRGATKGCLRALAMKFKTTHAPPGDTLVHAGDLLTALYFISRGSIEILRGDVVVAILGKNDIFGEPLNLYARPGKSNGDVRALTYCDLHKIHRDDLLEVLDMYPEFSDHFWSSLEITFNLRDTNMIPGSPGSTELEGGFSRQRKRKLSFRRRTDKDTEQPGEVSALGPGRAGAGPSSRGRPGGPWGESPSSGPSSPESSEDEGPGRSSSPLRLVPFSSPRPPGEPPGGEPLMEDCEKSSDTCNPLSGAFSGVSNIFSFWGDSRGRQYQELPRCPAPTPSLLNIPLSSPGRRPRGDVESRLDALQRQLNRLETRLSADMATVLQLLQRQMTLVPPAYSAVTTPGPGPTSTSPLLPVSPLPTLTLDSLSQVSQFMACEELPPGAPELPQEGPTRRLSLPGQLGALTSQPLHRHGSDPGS
A short description of data set [1]: in vitro. The settings on record: human, plasma.
Description: Plasma protein binding in human
The nature of data set [2]: in vivo. The settings on record: Sprague-Dawley, rat, po, at 30 to 300 mg/kg.
Data set [3] deals with T1, Nuclear receptor ROR-alpha (Homo sapiens, UniProt P35398).
T1 sequence (P35398 whole entry): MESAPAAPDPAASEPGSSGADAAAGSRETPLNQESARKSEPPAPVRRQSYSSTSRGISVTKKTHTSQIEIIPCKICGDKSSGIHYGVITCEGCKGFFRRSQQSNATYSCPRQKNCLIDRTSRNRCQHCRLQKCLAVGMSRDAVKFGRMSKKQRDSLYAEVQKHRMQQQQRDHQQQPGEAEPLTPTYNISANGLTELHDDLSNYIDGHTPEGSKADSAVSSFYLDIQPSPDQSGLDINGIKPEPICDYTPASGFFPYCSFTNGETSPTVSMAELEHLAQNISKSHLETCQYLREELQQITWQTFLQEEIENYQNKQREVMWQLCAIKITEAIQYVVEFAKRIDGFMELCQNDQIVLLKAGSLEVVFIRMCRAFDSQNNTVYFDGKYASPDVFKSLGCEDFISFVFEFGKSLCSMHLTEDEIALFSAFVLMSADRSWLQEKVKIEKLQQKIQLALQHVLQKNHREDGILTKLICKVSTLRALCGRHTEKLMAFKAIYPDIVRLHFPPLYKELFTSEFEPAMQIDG
Description: Agonist activity at RORalpha (unknown origin)

For another data set, the target named is CYP3A4 (Homo sapiens, UniProt P08684). As to the kind of experiment: in vitro. The settings on record: probe testosterone.
Chain of CYP3A4 (P08684 whole entry): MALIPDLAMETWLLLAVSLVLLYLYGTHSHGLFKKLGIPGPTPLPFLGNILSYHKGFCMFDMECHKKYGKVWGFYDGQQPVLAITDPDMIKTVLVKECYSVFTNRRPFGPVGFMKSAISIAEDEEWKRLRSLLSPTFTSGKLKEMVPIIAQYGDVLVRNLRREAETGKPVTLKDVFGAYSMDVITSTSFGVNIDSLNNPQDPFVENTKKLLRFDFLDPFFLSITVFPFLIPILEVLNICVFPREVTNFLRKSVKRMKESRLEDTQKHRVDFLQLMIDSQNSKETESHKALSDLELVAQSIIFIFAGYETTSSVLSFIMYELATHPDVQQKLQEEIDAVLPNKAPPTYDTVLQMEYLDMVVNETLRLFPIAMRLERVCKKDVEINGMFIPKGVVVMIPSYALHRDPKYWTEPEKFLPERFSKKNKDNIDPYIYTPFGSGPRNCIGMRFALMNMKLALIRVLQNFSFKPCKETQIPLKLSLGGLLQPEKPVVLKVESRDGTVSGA
Data set [4] in a line: in vivo. The settings on record: CD1, mouse, po, 10 mg/kg.
Data set [5] is described as follows: in vivo. The settings on record: Sprague-Dawley, rat, iv, 1 mg/kg.
Description: Volume of distribution in Sprague-Dawley rat at 1 mg/kg, iv
The next data set can be described thus: cells. The settings on record: Mus musculus, C57/BL6.
A further data set has as its system MC-38. As to the kind of experiment: animal or person. The settings on record: Mus musculus, MC-38, po, 600 h, read-out: TGI.
Another data set is described as follows: physchem. The settings on record: PBS buffer, pH 7.4.
Data set [6] can be described thus: in vitro. The settings on record: mouse, plasma.
Description: Plasma protein binding in mouse
The nature of data set [7]: in vivo. The settings on record: cynomolgus monkey, po, at 30 to 300 mg/kg.
Data set [8] addresses T2, Nuclear receptor ROR-beta (Homo sapiens, UniProt Q92753).
T2 sequence (Q92753 whole entry): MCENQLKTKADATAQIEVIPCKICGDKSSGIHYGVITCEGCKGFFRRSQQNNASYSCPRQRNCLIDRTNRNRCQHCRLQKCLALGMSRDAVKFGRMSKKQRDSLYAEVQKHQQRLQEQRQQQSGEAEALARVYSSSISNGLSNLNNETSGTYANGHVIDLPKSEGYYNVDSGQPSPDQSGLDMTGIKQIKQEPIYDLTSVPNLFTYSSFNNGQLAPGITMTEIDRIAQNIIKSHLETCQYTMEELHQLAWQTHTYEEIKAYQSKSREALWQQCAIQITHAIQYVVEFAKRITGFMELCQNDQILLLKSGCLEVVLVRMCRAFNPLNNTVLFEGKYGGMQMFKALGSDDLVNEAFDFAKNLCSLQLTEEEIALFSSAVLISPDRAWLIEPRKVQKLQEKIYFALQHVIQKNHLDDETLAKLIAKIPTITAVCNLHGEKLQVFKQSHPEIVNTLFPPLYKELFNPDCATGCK
Description: Agonist activity at RORbeta (unknown origin)

The nature of data set [9]: in vivo. The settings on record: CD1, mouse, po, 10 mg/kg. This is another data set of the same source.
Description: Half life in CD1 mouse at 10 mg/kg, po
Data set [10] in a line: in vivo. The settings on record: cynomolgus monkey, iv, 1 mg/kg.
Description: Volume of distribution in cynomolgus monkey rat at 1 mg/kg, iv
Data set [11] can be described thus: in vivo. The settings on record: Sprague-Dawley, rat, iv, 1 mg/kg. The source holds these as a separate data set.
Description: Half life in Sprague-Dawley rat at 1 mg/kg, iv
A further data set deals with CYP2D6 (Homo sapiens, UniProt P10635). Nature of the data set: in vitro. The settings on record: probe testosterone.
Chain of CYP2D6 (P10635 whole entry): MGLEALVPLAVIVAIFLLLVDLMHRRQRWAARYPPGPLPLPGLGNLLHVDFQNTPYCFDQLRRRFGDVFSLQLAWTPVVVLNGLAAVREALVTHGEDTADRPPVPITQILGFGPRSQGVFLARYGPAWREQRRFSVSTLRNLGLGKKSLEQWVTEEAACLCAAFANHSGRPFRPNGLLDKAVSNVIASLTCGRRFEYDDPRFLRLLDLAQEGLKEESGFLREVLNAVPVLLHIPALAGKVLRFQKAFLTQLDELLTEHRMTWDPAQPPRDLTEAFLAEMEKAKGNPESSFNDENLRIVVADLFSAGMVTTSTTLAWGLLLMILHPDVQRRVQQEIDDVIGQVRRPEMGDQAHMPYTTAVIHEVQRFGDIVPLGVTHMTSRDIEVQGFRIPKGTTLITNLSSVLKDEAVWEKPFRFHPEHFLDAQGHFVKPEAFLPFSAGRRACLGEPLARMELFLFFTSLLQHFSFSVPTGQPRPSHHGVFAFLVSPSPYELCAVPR
Data set [12] can be described thus: in vivo. The settings on record: cynomolgus monkey, iv, 1 mg/kg. This is another data set of the same source.
Description: Half life in cynomolgus monkey rat at 1 mg/kg, iv
Data set [13] in a line: in vivo. The settings on record: CD1, mouse, po, 10 mg/kg. This is another data set of the same source.

Description for CYP2D6: Inhibition of CYP2D6 (unknown origin) assessed as oxidation of testosterone at 10 uM
Description for CYP3A4: Inhibition of CYP3A4 (unknown origin) assessed as oxidation of testosterone at 10 uM
Description for MC-38: Antitumor activity against mouse MC38 cells implanted in C57/BL6 mouse assessed as tumor growth inhibition at 30 mg/kg, po twice daily measured up to 25 days
Description for cells: In vivo agonist activity at RORgamma in C57/BL6 mouse assessed as plasma concentration required to increase RORgamma targeted gene expression in isolated thymocytes
Description for hERG (KCNH2): Inhibition of human ERG by patch-clamp assay
Description for physchem: Solubility of the compound in pH 7.4 PBS buffer

The molecule `CC(C)(C[C@H]1CN(S(=O)(=O)c2cccc(C(F)(F)F)c2)c2cc(-c3cc(F)cc(OC(F)F)c3)ccc2O1)C(=O)O` [CINTIRORGON] registered an IC20 at hERG (KCNH2) of over 50 µM. Besides, the fraction unbound in “in vitro [1]” was 0.044; in “in vitro [6]”, 0.033. Further, the figures for the bioavailability in the data set “in vivo [2]”, in the data set “in vivo [4]” and in the data set “in vivo [7]” were at least 100%, 55% and at least 100%, respectively. Further, the concentration for a half-maximal effect (EC50) in data set [3] is over 10 µM; in the data set “cells” it was 0.338 µM; in data set [8] it was over 10 µM. In addition, the figures for the inhibition at 10 µM at CYP3A4 and at CYP2D6 were 9.5% and 6%, respectively. For the same molecule, the Vd in the data set “in vivo [5]” amounted to 5.7 L/kg; in the data set “in vivo [10]”, 1.42 L/kg. Moreover, in the data set with MC-38, the inhibition in vivo at 30 mg/kg came to 46%. The molecule further yielded a solubility in “physchem” of 10 µM (≈ 6.04 µg/mL). For the same molecule, the half-life in “in vivo [9]” is 4.31 h; in the data set “in vivo [11]”, 2.8 h; in the data set “in vivo [12]”, 6.6 h. In “in vivo [13]”, this molecule gave an AUC(0-inf) of 3240 ng·h/mL.
